#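 Five compound concentrations were applied to cells in 96-well plates for 48 hours; endpoints were derived by simple linear interpolation of the resulting dose-response curve. GI50 marks 50% less growth.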 The source made the active and inactive calls. Rule as the data show it: active = GI50 up to about 1.1 µM and inactive = higher.
# How the values were obtained:
# Experiment in all cases: NCI anticancer screen, dose series, 48 h
# SF-295 = system: SF-295
# MDA-N = system: MDA-N
# A549 = system: A549
# SNB-75 = system: SNB-75
# CAKI-1 = system: CAKI-1
# IGROV-1 = system: IGROV-1
# OVCAR-4 = system: OVCAR-4
# HCT-15 = system: HCT-15
# HCT-116 = system: HCT-116
# M14 = system: M14
# SK-OV-3 = system: SK-OV-3
# NCI-H226 = system: NCI-H226
# TK-10 = system: TK-10
# MCF7 = system: MCF7
# CCRF-CEM = system: CCRF-CEM
# NCI-H460 = system: NCI-H460
# A498 = system: A498
# KM12 = system: KM12
# NCI-H23 = system: NCI-H23
# XF498 = system: XF498
Structure (SMILES),GI50 (SF-295),GI50 (MDA-N),GI50 (A549),GI50 (SNB-75),GI50 (CAKI-1),GI50 (IGROV-1),GI50 (OVCAR-4),GI50 (HCT-15) [µM],GI50 (HCT-116),GI50 (M14),GI50 (SK-OV-3),GI50 (NCI-H226),GI50 (TK-10),GI50 (MCF7),GI50 (CCRF-CEM),GI50 (NCI-H460),GI50 (A498),GI50 (KM12),GI50 (NCI-H23),GI50 (XF498)
CC(C)(C)C(=O)/C=C(\OB(F)F)C(C)(C)C,> 100 µM (inactive),> 100 µM (inactive),> 100 µM (inactive),> 100 µM (inactive),> 100 µM (inactive),> 100 µM (inactive),> 100 µM (inactive),> 100,> 100 µM (inactive),> 100 µM (inactive),> 100 µM (inactive),> 100 µM (inactive),> 100 µM (inactive),> 100 µM (inactive),> 100 µM (inactive),> 100 µM (inactive),> 100 µM (inactive),> 100 µM (inactive),> 100 µM (inactive),–
COc1cc(OC)c(C(=O)c2cccs2)cc1N,> 100 µM (inactive),–,> 100 µM (inactive),> 100 µM (inactive),> 100 µM (inactive),> 100 µM (inactive),> 100 µM (inactive),> 100,–,> 100 µM (inactive),> 100 µM (inactive),–,> 100 µM (inactive),–,> 100 µM (inactive),> 100 µM (inactive),> 100 µM (inactive),> 100 µM (inactive),> 100 µM (inactive),> 100 µM (inactive)
CC(C)c1cccc(C(C)C)c1NC(=S)Nc1ccccc1,> 100 µM (inactive),–,> 100 µM (inactive),36.5 µM (inactive),–,> 100 µM (inactive),10.8 µM (inactive),> 100,> 100 µM (inactive),> 100 µM (inactive),> 100 µM (inactive),> 100 µM (inactive),> 100 µM (inactive),–,41.4 µM (inactive),> 100 µM (inactive),> 100 µM (inactive),> 100 µM (inactive),> 100 µM (inactive),0.434 µM (active)
C/C1=C\CC/C(C)=C/C=C(/C(C)C)CC/C(C(=O)O)=C/CC1 [CROTOCEMBRANEIC ACID],26.7 µM (inactive),59 µM (inactive),34.3 µM (inactive),77.3 µM (inactive),49.9 µM (inactive),61.1 µM (inactive),55.1 µM (inactive),37.8,40.3 µM (inactive),45 µM (inactive),35.5 µM (inactive),33 µM (inactive),56.8 µM (inactive),34.2 µM (inactive),30.5 µM (inactive),34.8 µM (inactive),21 µM (inactive),42.9 µM (inactive),36.5 µM (inactive),–
Cc1cccc(CNc2[nH]cnc3nncc2-3)c1,> 100 µM (inactive),> 100 µM (inactive),> 100 µM (inactive),53.5 µM (inactive),80.7 µM (inactive),64.4 µM (inactive),87.7 µM (inactive),> 100,> 100 µM (inactive),> 100 µM (inactive),> 100 µM (inactive),49.5 µM (inactive),> 100 µM (inactive),> 100 µM (inactive),> 100 µM (inactive),> 100 µM (inactive),40.6 µM (inactive),> 100 µM (inactive),> 100 µM (inactive),–
N#CC(c1ccccc1)N(CCOCCOCCN(C(=O)c1ccccc1)C(C#N)c1ccccc1)C(=O)c1ccccc1 (centres undefined),> 100 µM (inactive),> 100 µM (inactive),98.9 µM (inactive),> 100 µM (inactive),> 100 µM (inactive),> 100 µM (inactive),81.7 µM (inactive),> 100,46.6 µM (inactive),> 100 µM (inactive),> 100 µM (inactive),> 100 µM (inactive),78.2 µM (inactive),> 100 µM (inactive),58.5 µM (inactive),81.3 µM (inactive),> 100 µM (inactive),> 100 µM (inactive),84.7 µM (inactive),–
O=C(CCCN1CCC2(CC1)CC(c1ccccc1)OC2=O)c1ccc(F)cc1 (centres undefined),25 µM (inactive),49.4 µM (inactive),> 100 µM (inactive),16.7 µM (inactive),24.5 µM (inactive),> 100 µM (inactive),37.9 µM (inactive),37.2,33.8 µM (inactive),15.8 µM (inactive),> 100 µM (inactive),53.7 µM (inactive),59 µM (inactive),35.2 µM (inactive),41.6 µM (inactive),48.1 µM (inactive),24 µM (inactive),35 µM (inactive),53.7 µM (inactive),–
Cc1ccccc1NC(=O)C(=O)CC(=O)c1ccc([N+](=O)[O-])cc1,> 100 µM (inactive),–,> 100 µM (inactive),39.6 µM (inactive),> 100 µM (inactive),> 100 µM (inactive),> 100 µM (inactive),> 100,> 100 µM (inactive),> 100 µM (inactive),> 100 µM (inactive),> 100 µM (inactive),> 100 µM (inactive),–,–,> 100 µM (inactive),–,> 100 µM (inactive),> 100 µM (inactive),> 100 µM (inactive)

# Source: ChEMBL document CHEMBL1201862, “PubChem BioAssay data set” (2004)
